{"source": "patent US12673014B2", "about": "“Inhibitors of glycosphingolipid synthesis and methods of use” (priority 2018, dated 2026)", "type_in_all_cases": "in vivo, mouse", "key": {"[1]": {"test_system": "glucosylceramide synthase (UCGC)", "assay": "q-RT-PCR mRNA mass in skin tissue", "conditions": "placebo vs D-PDMP fed ApoE-/- mice (data not shown)"}, "[2]": {"test_system": "B1-4GalT-V", "assay": "GalT-V mass in skin tissue by ELISA, ApoE-/- mice fed western diet", "protocol": "Measurement of B1-4GalT-V mass in skin tissue: Here, about 10-mg skin tissue was homogenized in RIPA buffer and centrifuged at 10,000 rpm. The mass of GalT-V was measured in the supernatant fraction using an ELISA assay. About 100-μg of each protein sample (in triplicate) was loaded in 96-well, medium-binding, clear flat bottom polystyrene ELISA plates (Immulux, Chantilly VA)-total volume adjusted to 100 μL with bicarbonate buffer (50 mM Na2CO3—NaHCO3). […] This antibody specifically recognizes human, mouse and rat tissue B4GalT-V. Moreover, this interaction can be inhibited by large volumes of the GalT-V peptide but not other proteins or scrambled peptide. After overnight incubation at 4 C, 200 μL of blocking buffer (1% bovine serum albumin/phosphate buffered saline) was added and incubation continued overnight. […] C., followed by incubation for 1-hr at 37 deg. C. with a horseradish peroxidase-conjugated IgG (Sigma) secondary antibody. Finally, 100-μL of TMB solution was added, and after 10 min incubation at 37° C., absorbance was measured at 450 nm."}, "[3]": {"test_system": "LacCer synthase (GalT-V)", "assay": "q-RT-PCR mRNA mass in skin tissue", "conditions": "placebo vs D-PDMP fed ApoE-/- mice (data not shown)", "method": "Analysis of gene expression by quantitative Real-Time PCR: A ~50-mg piece of skin tissue was homogenized from each mice and total RNA was isolated using TRIsol reagent according to the manufacturer's instructions (Invitrogen, Camarillo, CA). Two microgram of RNA were reverse transcribed with SuperScript II using random primers. The primer sequence for GalT-V were as follows:\nThe primers were synthesized by Integrated DNA Technologies (Coralville, USA). Real time PCR were performed using SYBR Green PCR Master Mix PCR Master Mix (applied Biosystems, Foster City, CA, USA) in an Applied Biosystems Step one Real time PCR system as described previously^52. Data were normalized to GAPDH mRNA levels. Expression suite software (Applied Biosystems) was used to analyze the data."}, "[4]": {"test_system": "skin glycosphingolipids (ceramide, monohexosylceramide, lactosylceramide)", "assay": "Skin glycosphingolipids by LC-ESI/MS/MS in ApoE-/- mice fed western diet", "description": "Sample preparation: Glycosphingolipid molecular species were extracted according to a modified Bligh and Dyer procedure^55 Briefly, about 50-mg of each tissue sample was homogenized with 10 volumes of HPLC water at room temperature, followed by addition of 30 volumes methanol solution containing ammonium formate and d18:1/C12:0 ceramide as an internal standard (Avanti Polar Lipids, Alabaster, Alabama). The mixture was vortexed (Vortex-Genie, Model G560, Scientific Industries, Bohemia, NY), and 40 volumes of chloroform added. The mixture was vortexed again and centrifuged (Eppendorf centrifuge #5424) at 1,000 g for 10 minutes. The chloroform (bottom layer) was separated and dried using a Savant™ SPD131 SpeedVac (Thermo Scientific, Pittsburgh, PA, USA). Dried extracts were resuspended in pure methanol and sealed and stored at −80° C. until analysis by LC-ESI/MS/MS, as described previously^30-40."}, "[5]": {"test_system": "ApoE−/− mice fed a western diet", "assay": "Skin and hair phenotype (hair discoloration, hair loss, skin inflammation, wounds) in ApoE-/- mice fed western diet", "description": "Male, 11-week-old apolipoprotein E-deficient (ApoE−/−) mice were purchased from Jackson Labs (Bar Harbor, Maine), and fed a western diet from the age of 12 to 20 weeks. Next, they were divided into the following diet/treatment groups.\nMeasurement of skin discoloration: An oval shape was drawn on the photographs taken from mice at the age of 36 weeks. This oval space covered the back area of mice from the neck to the tail ([…]). Using the free drawing pen and measure/analyze tool, the white area was measured for each mouse. The ratio of white area to the total area was then calculated, and the standard deviations for all the animals in each cage (N=5) was calculated and plotted.\nMeasurement of wounds and wound healing: For mouse skin wound analysis, the number of visible wounds in placebo-vs. BPD-treated mice (N=5 in each group), were counted manually. Then, averages of the wounds for each group were determined, as were the ratios of wounds in BPD-vs placebo-treated mice. Those ratios were then converted to percentages, expressed as “% wound healing.”"}, "[6]": {"conditions": "western diet, BPD 1-10 mpk, D-PDMP 10 mpk, 20-36 weeks"}}}
{"smiles": "CCCCCCCCCC(=O)N[C@H](CN1CCOCC1)[C@H](O)c1ccccc1", "note": "[D-PDMP, D-threo-1-phenyl-2-decanoylamino-3-morpholino-1-propanol]", "values": [{"measurement": "mRNA mass of glucosylceramide synthase in skin", "setting": "[1]", "value": "No statistical difference"}, {"measurement": "mass of GalT-V in skin tissue", "setting": "[2]", "value": "showed a decrease"}, {"measurement": "mRNA mass of LacCer synthase (GalT-V) in skin", "setting": "[3]", "value": "No statistical difference"}, {"measurement": "lactosylceramide d18:1/22:0 and d18:1/24:1 in skin", "setting": "[4]; 1 mpk BPD or 10 mpk D-PDMP", "value": "restored to normal"}, {"measurement": "levels of fatty acid molecular species of skin ceramide", "setting": "[4]; 1 mpk BPD or 10 mpk D-PDMP, western diet lowered them ~3-fold", "value": "increased them to normal levels"}, {"measurement": "d18:1/24:1 monohexosylceramide in skin", "setting": "[4]; 1 mpk BPD vs 10 mpk D-PDMP, western diet lowered it ~3-fold", "value": "but not 10 mpk D-PDMP, completely restored"}, {"measurement": "d18:1/26:1 ceramide in skin", "setting": "[4]; 10 mpk D-PDMP", "value": "did not reverse the loss"}, {"measurement": "lactosylceramide d18:1/16:0 in skin", "setting": "[4]; 36 weeks, western diet raised it 3-fold", "value": "modestly decreased"}, {"measurement": "18:1/24:0 monohexosylceramide in skin", "setting": "[4]; printed: 1 mpk D-PDMP as efficacious as 10 mpk BPD, western diet lowered it ~1.5-fold", "value": "reversed"}, {"measurement": "glucosylceramide level in skin", "setting": "[4]; [6]", "value": "also increased"}, {"measurement": "total ceramide level in skin", "setting": "[4]; [6]", "value": "also increased"}, {"measurement": "total lactosylceramide level in skin", "setting": "[4]; western diet, BPD or D-PDMP", "value": "decreased"}, {"measurement": "% wound healing", "setting": "[5]; 10 mpk D-PDMP daily oral gavage, age 20-36 weeks, western diet", "value": 83, "unit": "%"}, {"measurement": "hair discoloration, hair loss, and skin inflammation", "setting": "[5]; 10 mpk unbound D-PDMP with western diet, 20 to 36 weeks", "value": "also interfered with these pathologies"}]}
